Results taken from patent US9238656B2, “Imidazo[4,5-b]pyridine derivatives as ALK and JAK modulators for the treatment of proliferative disorders” (priority 2012, dated 2016).

Tests used:
[1] = molecular target: baculovirus-expressed ALK (Homo sapiens, UniProt Q9UM73); assay: ALK kinase inhibition, TRF/ELISA; type: biochemical; conditions: read-out: ALK Potency
How it was run: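 Eu-PT66 anti-phosphotyrosine TRF read-out measured phosphorylation of plate-bound GST-PLC-γ (coated at 10 μg/mL). The phosphorylation was driven by 30 ng/mL ALK for 15 minutes at 37° C.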

[2] = molecular target: baculovirus-expressed JAK2 kinase (Homo sapiens, UniProt O60674); assay: biochemical; conditions: 0.2 μM ATP; read-out: JAK2 Potency
How it was run: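 IC50 derived by variable-slope sigmoidal fit of percent inhibition against log compound concentration. Baculovirus-expressed JAK2 (15 ng/mL) phosphorylated a plate-bound biotinylated 15-mer peptide for 20 min at room temperature; detection by time-resolved fluorescence.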

baculovirus-expressed JAK2 kinase, sequence (O60674 whole entry): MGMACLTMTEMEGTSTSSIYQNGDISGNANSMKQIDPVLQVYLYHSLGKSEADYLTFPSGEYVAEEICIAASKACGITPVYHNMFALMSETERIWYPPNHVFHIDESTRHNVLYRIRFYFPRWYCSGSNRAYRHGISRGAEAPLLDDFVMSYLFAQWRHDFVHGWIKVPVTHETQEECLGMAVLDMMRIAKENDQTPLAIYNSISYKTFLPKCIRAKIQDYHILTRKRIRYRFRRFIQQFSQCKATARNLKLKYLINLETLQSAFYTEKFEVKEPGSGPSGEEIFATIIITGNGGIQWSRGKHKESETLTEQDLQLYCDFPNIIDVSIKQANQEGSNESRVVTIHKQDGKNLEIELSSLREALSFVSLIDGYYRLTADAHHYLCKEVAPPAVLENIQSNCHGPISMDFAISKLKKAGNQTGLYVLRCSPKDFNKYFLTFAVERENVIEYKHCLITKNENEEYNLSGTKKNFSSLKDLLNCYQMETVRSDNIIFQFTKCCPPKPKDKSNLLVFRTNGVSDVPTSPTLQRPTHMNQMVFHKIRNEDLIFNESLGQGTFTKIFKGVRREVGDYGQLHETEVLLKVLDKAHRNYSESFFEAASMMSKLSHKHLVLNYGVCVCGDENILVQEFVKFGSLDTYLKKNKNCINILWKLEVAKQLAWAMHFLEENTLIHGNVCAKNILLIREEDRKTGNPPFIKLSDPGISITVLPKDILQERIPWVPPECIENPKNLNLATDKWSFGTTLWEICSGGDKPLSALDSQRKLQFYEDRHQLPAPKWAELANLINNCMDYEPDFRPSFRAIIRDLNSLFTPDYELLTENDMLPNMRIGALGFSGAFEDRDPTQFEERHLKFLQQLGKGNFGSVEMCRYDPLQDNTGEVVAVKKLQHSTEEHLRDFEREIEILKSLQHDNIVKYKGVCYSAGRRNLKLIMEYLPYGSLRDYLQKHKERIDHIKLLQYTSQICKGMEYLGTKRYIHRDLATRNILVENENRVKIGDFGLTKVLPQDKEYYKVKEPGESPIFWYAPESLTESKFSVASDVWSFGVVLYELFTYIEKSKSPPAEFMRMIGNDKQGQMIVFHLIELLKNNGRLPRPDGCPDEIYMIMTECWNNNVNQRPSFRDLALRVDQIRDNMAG
baculovirus-expressed ALK, sequence (Q9UM73 19-1620): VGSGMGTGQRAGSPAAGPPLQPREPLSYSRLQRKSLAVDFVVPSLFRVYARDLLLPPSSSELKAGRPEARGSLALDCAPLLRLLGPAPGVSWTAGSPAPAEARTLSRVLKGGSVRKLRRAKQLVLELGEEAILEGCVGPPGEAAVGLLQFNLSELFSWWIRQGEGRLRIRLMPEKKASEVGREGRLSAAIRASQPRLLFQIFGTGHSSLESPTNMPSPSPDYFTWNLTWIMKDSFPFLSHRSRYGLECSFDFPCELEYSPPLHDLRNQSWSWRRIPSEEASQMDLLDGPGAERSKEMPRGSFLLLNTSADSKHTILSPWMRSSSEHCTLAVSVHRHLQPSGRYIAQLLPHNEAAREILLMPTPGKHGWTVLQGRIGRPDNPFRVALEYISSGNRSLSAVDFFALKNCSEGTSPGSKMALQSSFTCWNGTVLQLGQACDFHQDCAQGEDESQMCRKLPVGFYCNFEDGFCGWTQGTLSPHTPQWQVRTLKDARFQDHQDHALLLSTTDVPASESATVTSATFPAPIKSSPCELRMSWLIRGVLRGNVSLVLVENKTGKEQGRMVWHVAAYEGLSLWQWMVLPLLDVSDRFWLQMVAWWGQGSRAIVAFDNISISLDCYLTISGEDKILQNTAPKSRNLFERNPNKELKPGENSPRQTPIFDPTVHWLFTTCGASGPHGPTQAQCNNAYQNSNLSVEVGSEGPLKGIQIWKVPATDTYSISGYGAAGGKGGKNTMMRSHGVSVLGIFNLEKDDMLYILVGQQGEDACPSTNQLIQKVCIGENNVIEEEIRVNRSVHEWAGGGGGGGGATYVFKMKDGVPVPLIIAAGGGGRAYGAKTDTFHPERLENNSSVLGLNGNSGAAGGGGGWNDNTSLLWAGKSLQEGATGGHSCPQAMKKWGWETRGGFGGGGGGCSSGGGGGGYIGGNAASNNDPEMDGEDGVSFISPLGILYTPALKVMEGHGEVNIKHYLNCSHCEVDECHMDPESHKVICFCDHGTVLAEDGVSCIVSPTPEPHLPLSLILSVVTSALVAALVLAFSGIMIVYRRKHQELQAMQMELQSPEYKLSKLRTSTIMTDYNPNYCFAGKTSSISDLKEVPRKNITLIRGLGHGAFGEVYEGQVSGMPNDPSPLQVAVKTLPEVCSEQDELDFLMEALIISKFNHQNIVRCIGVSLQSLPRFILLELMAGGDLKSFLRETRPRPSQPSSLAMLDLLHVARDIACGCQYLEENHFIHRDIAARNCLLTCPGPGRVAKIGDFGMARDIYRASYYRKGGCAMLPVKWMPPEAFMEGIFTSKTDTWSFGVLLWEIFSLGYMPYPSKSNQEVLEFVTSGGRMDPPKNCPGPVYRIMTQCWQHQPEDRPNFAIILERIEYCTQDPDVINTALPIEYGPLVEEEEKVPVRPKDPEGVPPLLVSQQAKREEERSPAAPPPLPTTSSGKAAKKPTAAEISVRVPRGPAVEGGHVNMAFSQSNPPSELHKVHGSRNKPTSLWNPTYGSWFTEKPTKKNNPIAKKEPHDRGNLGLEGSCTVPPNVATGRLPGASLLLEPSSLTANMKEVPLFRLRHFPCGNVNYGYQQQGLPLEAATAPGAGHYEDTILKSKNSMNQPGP

| Structure (SMILES) | melting point [°C] | IC50 [1] [nM] | IC50 [2] [nM] |
| --- | --- | --- | --- |
| COc1cc(N2CCN(C)CC2)ccc1-c1nc2c(N[C@H]3[C@@H](C(N)=O)[C@@H]4C=C[C@H]3C4)c(Br)cnc2[nH]1 [Compound XCVI, (1S,2S,3R,4R)-3-{6-Bromo-2-[2-methoxy-4-(4-methyl-piperazin-1-yl)-phenyl]-3H-imidazo[4,5-b]pyridin-7-ylamino}-bicyclo[2.2.1]hept-5-ene-2-carboxylic acid amide] | 185 to 195 | < 100 | < 100 |
| C=CCc1ccc(-c2nc3c(N[C@H]4[C@@H](C(N)=O)[C@@H]5C=C[C@H]4C5)c(Cl)cnc3[nH]2)c(OC)c1 [Compound LVI, (1S,2S,3R,4R)-3-[2-(4-Allyl-2-methoxy-phenyl)-6-chloro-3H-imidazo[4,5-b]pyridine-7-ylamino]-bicyclo[2.2.1]hept-5-ene-2-carboxylic acid amide] | 123 to 126 | < 100 | < 100 |
| COc1ccc(-c2nc3c(N[C@H]4[C@@H](C(N)=O)[C@@H]5C=C[C@H]4C5)c(Cl)cnc3[nH]2)c(C2CCN(C[C@@H](C)O)CC2)c1 [Compound XXXI] | 186 to 187 | 1000 to 10000 | 100 to 1000 |
| CC(C)(C)OC(=O)N1CCCC(c2nc3c(N[C@H]4[C@@H](C(N)=O)[C@@H]5C=C[C@H]4C5)c(Br)cnc3[nH]2)C1 (stereo partly drawn) [Compound LXXXII, 3-[6-Bromo-7-((1R,2R,3S,4S)-3-carbamoyl-bicyclo[2.2.1]hept-5-en-2-ylamino)-3H-imidazo[4,5-b]pyridin-2-yl]-piperidine-1-carboxylic acid tert-butyl] | 172 to 177 | 100 to 1000 | 100 to 1000 |
| COc1cc(CN2CCN(C[C@H](C)O)CC2)ccc1-c1nc2c(N[C@H]3[C@@H](C(N)=O)[C@@H]4C=C[C@H]3C4)c(Cl)cnc2[nH]1 [Compound XLIII, (1S,2S,3R,4R)-3-(6-Chloro-2-{4-[4-((S)-2-hydroxypropyl)-piperazin-1-ylmethyl]-2-methoxyphenyl}-3H-imidazo[4,5-b]pyridine-7-ylamino)-bicyclo[2.2.1]hept-5-ene-2-carboxylic acid amide] | 142 to 146 | < 100 | < 100 |

Results, then the compound that gave them:

| melting point [°C] | IC50 [1] [nM] | IC50 [2] [nM] | Structure (SMILES) |
| --- | --- | --- | --- |
| 194 to 197 | 1000 to 10000 | 1000 to 10000 | COc1cccc(OC)c1-c1nc2c(N[C@H]3[C@@H](C(N)=O)[C@@H]4C=C[C@H]3C4)c(Br)cnc2[nH]1 [Compound CVI, (1S,2S,3R,4R)-3-[6-Bromo-2-(2,6-dimethoxy-phenyl)-3H-imidazo[4,5-b]pyridin-7-ylamino]-bicyclo[2.2.1]hept-5-ene-2-carboxylic acid amide] |
| 200 to 204 | > 10000 | 1000 to 10000 | CN(C)c1cccc(-c2nc3c(N[C@H]4[C@@H](C(N)=O)[C@@H]5C=C[C@H]4C5)ccnc3[nH]2)c1 [Compound LXXXVII, (1S,2S,3R,4R)-3-[2-(3-Dimethylamino-phenyl)-3H-imidazo[4,5-b]pyridin-7-ylamino]-bicyclo[2.2.1]hept-5-ene-2-carboxylic acid amide] |
| 185 to 195 | 100 to 1000 | > 10000 | COc1cc(N2CCC(N3CCN(C)CC3)CC2)ccc1-c1nc2c(N[C@H]3[C@@H](C(N)=O)[C@@H]4C=C[C@H]3C4)ccnc2[nH]1 [Compound XCIX, (1S,2S,3R,4R)-3-(2-{2-Methoxy-4-[4-(4-methyl-piperazin-1-yl)-piperidin-1-yl]-phenyl}-3H-imidazo[4,5-b]pyridin-7-ylamino)-bicyclo[2.2.1]hept-5-ene-2-carboxylic acid amide] |
| 240 to 244 | > 10000 | 1000 to 10000 | NC(=O)[C@@H]1[C@H](Nc2ccnc3[nH]c(-c4cccc(CN5CCOCC5)c4)nc23)[C@H]2C=C[C@@H]1C2 [Compound XCI, (1S,2S,3R,4R)-3-[2-(3-Morpholin-4-ylmethyl-phenyl)-3H-imidazo[4,5-b]pyridin-7-ylamino]-bicyclo[2.2.1]hept-5-ene-2-carboxylic acid amide] |
